# According to patent US9707234B2, “Spirocyclic hetercycle compounds useful as HIV integrase inhibitors” (MERCK SHARP & DOHME CORP., priority 2013, dated 2017):
# Read-outs that look alike come from different tables or passages of the source.
# System: HIV-1 (H9IIIB or NL4-3 virus) replication in MT4-GFP cells
# Test: microbe, parasite or virus in culture
# Assay type: cell-based
# Conditions: inhibition of reproductive ratio R0, 48-72 h post-infection
# [1] = Human immunodeficiency virus 1, NL43, MT4-GFP cells infected with HIV-1, 10% normal human serum, read-out: ViKinG IP (nM) with 10% NHS
# [2] = Human immunodeficiency virus 1, NL43, MT4-GFP cells infected with HIV-1, serum free conditions (0% NHS), read-out: ViKinG IP (nM) with 0% NHS
# [3] = MT4-GFP cells infected with HIV-1, 100% normal human serum, read-out: ViKinG IP (nM) with 100% NHS
# [4] = MT4-GFP cells infected with HIV-1, serum free conditions (0% NHS), read-out: ViKinG IP (nM) with 0% NHS
# [5] = Human immunodeficiency virus 1, NL43, MT4-GFP cells infected with HIV-1, 100% normal human serum, read-out: ViKinG IP (nM) with 100% NHS
structure (smiles),measurement,setting,value
CN1C(=O)c2c(O)c(=O)c(-c3nnc(Cc4ccc(F)cc4F)s3)cn2N(C)C12CCCNCC2 (centres unmarked) [Compound 34],IC50,[1],34 nM
same,IC50,[2],9.7 nM
"CN1C(=O)c2c(O)c(=O)c(C(=O)NCc3cccc(Cl)c3F)cn2N(C)C12COCC2(C)C (single isomer, unassigned) [Compound 128]",IC50,[3],131 nM
same,IC50,[4],0.7 nM
"CN1C(=O)c2c(O)c(=O)c(C(=O)NCc3ccc(F)c(Cl)c3F)cn2N(C)C12CCOC2 (single isomer, unassigned) [Compound 117]",IC50,[2],0.5 nM
same,IC50,[3],246 nM
COCCN1C(=O)c2c(O)c(=O)c(C(=O)NCc3ccc(F)cc3F)cn2CC12CCOCC2 [Compound 42],IC50,[5],234 nM
same,IC50,[2],2.4 nM
"CC1OCCC12N(C)C(=O)c1c(O)c(=O)c(C(=O)NCc3ccc(F)cc3F)cn1N2C (single isomer, unassigned) [Compound 134]",IC50,[3],65 nM
same,IC50,[4],0.9 nM
CCOC(=O)N1CCC2(CC1)N(C)C(=O)c1c(O)c(=O)c(-c3nnc(Cc4ccc(F)cc4)s3)cn1N2C [Compound 18],IC50,[1],13 nM
same,IC50,[5],254 nM
CCOC(=O)N1CCC2(CC1)N(C)C(=O)c1c(O)c(=O)c(-c3nnc(Cc4ccc(F)cc4F)s3)cn1N2C [Compound 19],IC50,[1],9 nM
same,IC50,[5],133 nM
"CN1C(=O)c2c(O)c(=O)c(C(=O)NCc3ccc(F)cc3)cn2N(C)C12CCOC2 (single isomer, unassigned) [Compound 114]",IC50,[3],87 nM
same,IC50,[4],0.8 nM
"CC1OCCC12N(C)C(=O)c1c(O)c(=O)c(C(=O)NCc3ccc(F)cc3F)cn1N2C (single isomer, unassigned) [Compound 133]",IC50,[3],55 nM
CCN1C(=O)c2c(O)c(=O)c(-c3nnc(Cc4ccc(F)cc4F)s3)cn2N(C)C12CCSCC2 [Compound 15],IC50,[1],178 nM
same,IC50,[5],3140 nM
same,IC50,[2],8 nM
"CCN1C(=O)c2c(O)c(=O)c(-c3nnc(Cc4ccc(F)cc4F)s3)cn2N(C)C12CCOC2 (single isomer, unassigned) [Compound 35]",IC50,[3],133 nM
same,IC50,[4],1.7 nM
"CN1C(=O)c2c(O)c(=O)c(C(=O)NCc3ccc(F)cc3F)cn2N(CC2CC2)C12CCOC2 (single isomer, unassigned) [Compound 152]",IC50,[3],174 nM
same,IC50,[4],0.7 nM
COCc1c(C(=O)NCc2ccc(F)cc2F)c(=O)c(O)c2n1CC1(CCOC1)N(C)C2=O (centres unmarked) [Compound 48],IC50,[5],194 nM
same,IC50,[2],124 nM
CCN1C(=O)c2c(O)c(=O)c(-c3nnc(Cc4ccc(F)cc4F)s3)cn2N(C)C12CCN(S(C)(=O)=O)CC2 [Compound 12],IC50,[1],24 nM
same,IC50,[5],126 nM
CN1C(=O)c2c(O)c(=O)c(-c3cnn(Cc4ccc(F)cc4F)c3)cn2CC12CCOC2 (centres unmarked) [Compound 90],IC50,[5],123 nM
same,IC50,[2],34.1 nM
"COCCN1C(=O)c2c(O)c(=O)c(C(=O)NCc3ccc(F)cc3F)cn2CC12CCCOC2 (single isomer, unassigned) [Compound 84]",IC50,[3],1960 nM
same,IC50,[4],4.5 nM
COCCCN1C(=O)c2c(O)c(=O)c(C(=O)NCc3ccc(F)cc3F)cn2N(C)C12COC2 [Compound 145],IC50,[5],174 nM
same,IC50,[2],1.4 nM
"CN1C(=O)c2c(O)c(=O)c(C(=O)NCc3ccc(F)cc3F)cn2N(CC2CC2)C12CCOC2 (single isomer, unassigned) [Compound 151]",IC50,[5],240 nM
same,IC50,[2],0.7 nM
COCCN1C(=O)c2c(O)c(=O)c(C(=O)NCc3ccc(F)cc3F)cn2CC12CCNCC2 [Compound 87],IC50,[5],98 nM
same,IC50,[2],16 nM
"CN1C(=O)c2c(O)c(=O)c(C(=O)NCc3ccc(F)cc3F)cn2N(C)C12CCNC2 (single isomer, unassigned) [Compound 170]",IC50,[3],66 nM
same,IC50,[4],5 nM
"CN1C(=O)c2c(O)c(=O)c(C(=O)NCc3cccc(Cl)c3F)cn2CC12CCOC2 (single isomer, unassigned) [Compound 65]",IC50,[5],60 nM
same,IC50,[2],1.5 nM
CCOCCN1C(=O)c2c(O)c(=O)c(C(=O)NCc3ccc(F)cc3F)cn2N(C)C12COC2 [Compound 146],IC50,[5],485 nM
same,IC50,[2],10.9 nM
COCCCN1C(=O)c2c(O)c(=O)c(C(=O)NCc3ccc(F)cc3F)cn2CC12CCOCC2 [Compound 43],IC50,[5],39 nM
same,IC50,[2],3 nM
CCN1C(=O)c2c(O)c(=O)c(-c3nnc(Cc4ccc(F)cc4F)s3)cn2N(C)C12CCN(C(=O)OC)CC2 [Compound 8],IC50,[5],131 nM
same,IC50,[2],5.5 nM
CCN1C(=O)c2c(O)c(=O)c(-c3nnc(Cc4ccc(F)cc4F)s3)cn2N(C)C12CCN(C(C)=O)CC2 [Compound 10],IC50,[1],57 nM
same,IC50,[5],1500 nM
CN1C(=O)c2c(O)c(=O)c(C(=O)NCc3ccc(F)cc3F)cn2CC12CCOCC2 [Compound 39],IC50,[5],49 nM
same,IC50,[2],4.2 nM
"COCCN1n2cc(C(=O)NCc3ccc(F)cc3F)c(=O)c(O)c2C(=O)N(C)C12CCOC2 (single isomer, unassigned) [Compound 156]",IC50,[3],106 nM
same,IC50,[4],1.2 nM
"CN1C(=O)c2c(O)c(=O)c(C(=O)NCc3ccc(F)cc3)cn2CC12CCOC2 (single isomer, unassigned) [Compound 59]",IC50,[5],56 nM
same,IC50,[2],1.9 nM
"CN1C(=O)c2c(O)c(=O)c(C(=O)NCc3ccc(F)cc3F)cn2N(CCCC(F)(F)F)C12CCOC2 (single isomer, unassigned) [Compound 165]",IC50,[3],146 nM
"CCN1C(=O)c2c(O)c(=O)c(C(=O)NCc3ccc(F)cc3F)cn2N(C)C12CCOC2 (single isomer, unassigned) [Compound 119]",IC50,[1],11 nM
same,IC50,[5],163 nM
same,IC50,[2],1.2 nM
CCN1C(=O)c2c(O)c(=O)c(-c3nnc(Cc4ccc(F)cc4F)s3)cn2N(C)C12CCS(=O)(=O)CC2 [Compound 16],IC50,[1],47 nM
same,IC50,[2],17.3 nM
"CN1C(=O)c2c(O)c(=O)c(C(=O)NCc3cccc(Cl)c3F)cn2N(C)C12COCC2(C)C (single isomer, unassigned) [Compound 127]",IC50,[5],134 nM
same,IC50,[2],1 nM
"CN1C(=O)c2c(O)c(=O)c(C(=O)NCc3c(F)cc(F)cc3F)cn2CC12CCOC2 (single isomer, unassigned) [Compound 63]",IC50,[5],17 nM
same,IC50,[2],1.9 nM
"COCCCN1n2cc(C(=O)NCc3ccc(F)cc3F)c(=O)c(O)c2C(=O)N(C)C12CCOC2 (single isomer, unassigned) [Compound 157]",IC50,[5],111 nM
same,IC50,[4],2.5 nM
"CC1OCCC12N(C)C(=O)c1c(O)c(=O)c(C(=O)NCc3cccc(Cl)c3F)cn1N2C (single isomer, unassigned) [Compound 135]",IC50,[2],0.9 nM
same,IC50,[3],486 nM
CN1C(=O)c2c(O)c(=O)c(C(=O)NCc3ccc(F)c(Cl)c3F)cn2CC12CCOC2 (centres unmarked) [Compound 55],IC50,[5],30 nM
same,IC50,[2],0.6 nM
CCCN1C(=O)c2c(O)c(=O)c(-c3nnc(Cc4ccc(F)cc4F)s3)cn2N(C)C12CCN(C(=O)OCC)CC2 [Compound 7],IC50,[1],58 nM
same,IC50,[5],148 nM
same,IC50,[2],29.9 nM
CCCN1C(=O)c2c(O)c(=O)c(C(=O)NCc3ccc(F)cc3F)cn2CC12CCOCC2 [Compound 41],IC50,[5],7800 nM
same,IC50,[2],11.2 nM
"CN1C(=O)c2c(O)c(=O)c(C(=O)NCc3c(F)cccc3F)cn2N(C)C12CCOC2 (single isomer, unassigned) [Compound 115]",IC50,[5],54 nM
same,IC50,[2],1.2 nM
C[C@H]1CC2(CCN1C(=O)OCc1ccccc1)N(C)C(=O)c1c(O)c(=O)c(-c3nnc(Cc4ccc(F)cc4F)s3)cn1N2C (some centres unmarked) [Compound 21],IC50,[1],141 nM
